Measurements: patent publication US10765638B2, “Particle formulation with polycation complex” (Yale University, priority 2017, dated 2020)

System: U251 cells
Assay: Phospho-γH2AX foci formation after radiation
Type: cell-based
Conditions: 2 hours after 4 Gy, 10 μM NGI-1
Protocol: To determine histone H2AX phosphorylation (γH2AX), cells were cultured on glass cover slips and pre-treated with either vehicle or NGI-1 for 48 hours followed by radiation treatment. Samples were fixed with 4% neutral-buffered formaldehyde, washed (0.1% triton in PBS for 30 minutes) and incubated for 1 hour with protein-blocking solution (PBS containing 10% normal goat-horse serum; Sigma-Aldrich, Saint Louis, Mich., US). Next, the slides were incubated with primary anti-phospho-histone γH2AX S139 (1:500, Millipore-Upstate, Billerica, Mass., US) followed by incubation with secondary antibody Alexa Fluor 555-conjugated goat anti-mouse IgG (1:750, Molecular probes/Invitrogen, Carlsbad, Calif., US), for 1 hour at room temperature. Nuclei were stained using DAPI containing vectashield mounting solution (Vector Labs). Confocal cellular images were captured with an inverted Zeiss LSM 510 Pascal laser confocal microscope (C. Zeiss, Jenna, Germany), using a 63/1.4 plan-apochromat objective. Five randomly selected fields s per slide were analyzed. Cells were counted using the ImageJ program, public domain Java image processing software.

Structure (SMILES): Cc1cnc(NC(=O)c2cc(S(=O)(=O)N(C)C)ccc2N2CCCC2)s1 [NGI-1, 5-(dimethylsulfamoyl)-N-(5-methyl-1,3-thiazol-2-yl)-2-(pyrrolidin-1-yl)benzamide]
- enhancement of phospho-γH2AX foci formation: no enhancement
